According to ChEMBL document CHEMBL4266024, “Phytochemical Study of Senecio volckmannii Assisted by CASE-3D with Residual Dipolar Couplings and Isotropic 1H/13C NMR Chemical Shifts” (2018):

Tests used:
Type in all cases: functional
A549 = test: Growth inhibition of human A549 cells after 48 hrs by sulforhodamine B assay; conditions: A549, 48 h
HBL-100 = test: Growth inhibition of human HBL100 cells after 48 hrs by sulforhodamine B assay; conditions: HBL-100, 48 h
HeLa = test: Growth inhibition of human HeLa cells after 48 hrs by sulforhodamine B assay
SW1573 = test: Growth inhibition of human SW1573 cells after 48 hrs by sulforhodamine B assay; conditions: SW1573, 48 h
T47D = test: Growth inhibition of human T47D cells after 48 hrs by sulforhodamine B assay
WiDr = test: Growth inhibition of human WiDr cells after 48 hrs by sulforhodamine B assay

Measured: GI50

CC(C)=C1C[C@@]2(C)[C@H](CCC(=O)[C@@H]2C)CC1=O (relative stereo)
> 10 µM: A549 | HBL-100 | HeLa | SW1573 | T47D | WiDr

CC(C)=C1C[C@@]2(C)C(=CC1=O)[C@H](O)CC[C@@H]2C
> 10 µM: A549 | HBL-100 | HeLa | SW1573 | T47D | WiDr

CC(=O)C1=C[C@@]2(C)C(=CC1=O)CCC[C@@H]2C (relative stereo)
> 10 µM: A549 | HBL-100 | HeLa | SW1573 | T47D | WiDr

C[C@H]1CCCC2=CC(=O)C(C(C)(C)O)=C[C@@]21C
> 10 µM: A549 | HBL-100 | HeLa | SW1573 | T47D | WiDr

CC1=C2C[C@@]3(C)[C@H](C[C@@]2(O)OC1=O)C(=O)CC[C@@H]3C
> 10 µM: A549 | HBL-100 | HeLa | SW1573 | T47D | WiDr

C[C@H]1CC[C@@H](O)C2=CC(=O)C(C(C)(C)O)=C[C@@]21C (relative stereo)
> 10 µM: A549 | HBL-100 | HeLa | SW1573 | T47D | WiDr

CC(C)=C1C[C@@]2(C)C(=CC1=O)CCC[C@@H]2C
> 10 µM: A549 | HBL-100 | HeLa | SW1573 | T47D | WiDr

C[C@H]1CCCC2=CC(=O)[C@H](C(C)(C)O)C[C@@]21C
> 10 µM: A549 | HBL-100 | HeLa | SW1573 | T47D | WiDr

CC(C)=C1C[C@@]2(C)C(=CC1=O)[C@@H](O)CC[C@@H]2C
> 10 µM: A549 | HBL-100 | HeLa | SW1573 | T47D | WiDr
